Laboratory results from paper PMC12045974, “T cell toxicity induced by tigecycline binding to the mitochondrial ribosome” (Nature Communications, 2025).
Where “and” joins values, the source holds several entries; their conditions need not be identical. Equal entries are not always repeated. Where two headings read alike, the source gives them in different places.

Key:
Jurkat T cells = experiment: Cell viability assay (CCK-8), Jurkat T cells; format: cell-based, human; conditions: for cell vialibity normalized to Vehicle (DMSO): in % (unit assumed)
Procedure, shortened: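 This CCK-8 viability assay used Jurkat T cells seeded at 6000 per well and grown in supplemented RPMI-1640, 100 μl per well. Antibiotic stocks in DMSO were diluted in medium to give 9 concentrations, and untreated wells received matching DMSO. After treatment, cells were incubated with 10% CCK-8 for 3 h. Results were normalized to vehicle, technical repeats were plotted as mean ± SEM, and IC50 values were derived.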

HeLa cells = experiment: Cell viability assay (CCK-8), HeLa cells; format: cell-based; conditions: in % (unit assumed)
Protocol: (§1) Cells were seeded in 96-well plates ranging from 2000 to 15,000 cells per well depending on different cell lines and treated with antibiotics in serial dilutions for 72 h (120 h for the preliminary assays) in a humidified incubator (37 °C, 5% CO2) in 100 μl medium (DMEM with 10% FBS, 2.05 mM L-glutamine (Sigma) for Hek293 and Hela; RPMI-1640 with 10% FBS, 2.05 mM L-glutamine (Sigma), and 55 μM 2-ME (Gibco) for Jurkat T cells and PBMCs). Based on preliminary tests, the number of cells per well was optimized to 2000 for Hela and Hek293, 6000 for Jurkat T cells, and 15,000 for PBMCs. The stocks of antibiotics were prepared by dissolving in DMSO. As control, the same amount of DMSO was added to the non-treated groups. Serial drug dilutions were prepared in the corresponding medium to provide a total of 9 concentrations up to 300 μM for tetracyclines and up to 900 μM for additional bacterial protein synthesis inhibitors. After drug treatment, 10% CCK-8 (Cell Counting Kit-8, Sigma Aldrich) (10 μl per well) of the total volume was added to the cells and incubated for 1–4 h depending on cell lines (1 h for Hela and Hek293; 3 h for Jurkat T cells; 4 h for PBMCs) before the evaluation of the effect of antibiotics on cell viability. […] Results were visually confirmed under the light microscope. Each treatment was performed in technical repeats. Dose-response curves were plotted, mean ± SEM was shown, and half maximal inhibitory concentration (IC50) values were calculated in GraphPad Prism.

[1] = test system: mitochondrial translation; experiment: 35S metabolic labeling, de novo mitochondrial translation assay in Jurkat T cells; format: cell-based, human; conditions: 5 μM, 18 h of treatment
Protocol: Jurkat T cells were seeded in 6-well plates at a density of 1 million cells/ml and cultured with different concentrations of antibiotics for 18 h in RPMI-1640 medium (with 10% FBS, 2.05 mM L-glutamine (Sigma), and 55 μM 2-ME (Gibco)). After centrifugation, cells were incubated twice for 5 min at 37 °C in Cys-/Met-free medium (DMEM, high glucose, no glutamine, no methionine, no cysteine, supplemented with 10% dialyzed fetal bovine serum, 1× GlutaMax, and sodium pyruvate), followed by 20 min incubation at 37 °C in Cys-/Met-free medium supplemented with 100 µg/ml emetine to inhibit cytosolic translation (only for mitochondrial translation groups). Subsequently, 1 ml Cys-/Met-free medium supplemented with 200 (for cytosolic translation) or 400 µCi (for mitochondrial translation) of EasyTag EXPRESS [^35S] protein labeling mix (methionine and cysteine) (Perkin Elmer) were added to each sample and incubated for 20 min at 37 °C, 5% CO2. Following labeling, cells were washed three times with 1 ml PBS, harvested by centrifugation (400 × g, 10 min, 4 °C), and stored at −20 °C. Cells were lysed by resuspension in 30 µl PBS supplemented with a Complete EDTA-free protease inhibitor cocktail and 50 U Benzonase nuclease (Sigma) and by application of one freeze-thaw cycle. Protein contents were determined by Pierce BCA assay (Thermo Fisher). […]

PBMCs = experiment: Cell viability assay (CCK-8), PBMCs; format: cell-based, human; conditions: Homo sapiens, PBMC, 72 h, PBMCs, read-out: cell vialibity normalized to Vehicle (DMSO)
Protocol: as §1, with “Buffy coats were ordered from anonymous blood donors at […]. […] Cells” for “Cells”, “1-4” for “1–4”

C[C@H]1c2cccc(O)c2C(=O)C2=C(O)[C@]3(O)C(=O)C(C(N)=O)=C(O)[C@@H](N(C)C)[C@@H]3[C@@H](O)[C@@H]21 [Doxycycline, doxycycline]
IC50 (Jurkat T cells; Homo sapiens, 120 h, Jurkat T cells, after 5 days, read-out: IC50 (cell survival)): 6.93 µM
cell vialibity normalized to Vehicle (DMSO) (Jurkat T cells; Jurkat 3d, dose 1 μM): 102.781 and 111.139 and 99.3878 and 96.4732 and 90.2582
cell vialibity normalized to Vehicle (DMSO) (Jurkat T cells; Jurkat 3d, dose 5 μM): 115.784 and 120.149 and 111.073 and 98.3364 and 101.664
cell vialibity normalized to Vehicle (DMSO) (Jurkat T cells; Jurkat 3d, dose 10 μM): 38.4083 and 33.5773 and 30.3966 and 27.7083 and 36.9178
cell vialibity normalized to Vehicle (DMSO) (Jurkat T cells; Jurkat 3d, dose 50 μM): 15.6109 and 16.1964 and 17.4075 and 16.8885 and 14.799
cell vialibity normalized to Vehicle (DMSO) (Jurkat T cells; Jurkat 3d, dose 100 μM): 22.9705 and 21.6928 and 21.7195 and 21.0407 and 21.5331
cell vialibity normalized to Vehicle (DMSO) (Jurkat T cells; Jurkat 5d, dose 1 μM): 114.324 and 76.849 and 78.0026 and 73.9947 and 75.2933
cell vialibity normalized to Vehicle (DMSO) (Jurkat T cells; Jurkat 5d, dose 5 μM): 77.1127 and 72.762 and 88.7937 and 109.835 and 79.8088
cell vialibity normalized to Vehicle (DMSO) (Jurkat T cells; Jurkat 5d, dose 10 μM): 12.7884 and 10.534 and 11.8194 and 11.8853 and 12.2149
cell vialibity normalized to Vehicle (DMSO) (Jurkat T cells; Jurkat 5d, dose 50 μM): 9.394 and 7.97 and 7.877 and 8.029 and 7.9499
cell vialibity normalized to Vehicle (DMSO) (Jurkat T cells; Jurkat 5d, dose 100 μM): 12.3797 and 14.0541 and 16.7699 and 13.5333 and 13.3553
cell vialibity normalized to Vehicle (DMSO) (Jurkat T cells; Jurkat, 72 h, dose 0.0457247 μM, Fig. 1A): 104.061 and 104.425 and 103.549
cell vialibity normalized to Vehicle (DMSO) (Jurkat T cells; Jurkat, 72 h, dose 0.137174 μM, Fig. 1A): 102.734 and 100.282 and 102.099
cell vialibity normalized to Vehicle (DMSO) (Jurkat T cells; Jurkat, 72 h, dose 0.411523 μM, Fig. 1A): 102.372 and 108.487 and 106.988
cell vialibity normalized to Vehicle (DMSO) (Jurkat T cells; Jurkat, 72 h, dose 1.23457 μM, Fig. 1A): 101.608 and 103.54 and 101.759
cell vialibity normalized to Vehicle (DMSO) (Jurkat T cells; Jurkat, 72 h, dose 3.7037 μM, Fig. 1A): 101.93 and 103.62 and 98.3642
cell vialibity normalized to Vehicle (DMSO) (Jurkat T cells; Jurkat, 72 h, dose 11.1111 μM, Fig. 1A): 87.2939 and 95.2132 and 89.0432
cell vialibity normalized to Vehicle (DMSO) (Jurkat T cells; Jurkat, 72 h, dose 33.3333 μM, Fig. 1A): 14.5557 and 15.5672 and 13.1235
cell vialibity normalized to Vehicle (DMSO) (Jurkat T cells; Jurkat, 72 h, dose 100 μM, Fig. 1A): 5.107 and 4.7868 and 3.556
cell vialibity normalized to Vehicle (DMSO) (HeLa cells; Hela 3d, dose 1 μM): 90.6648 and 96.338 and 89.6672 and 89.6605 and 88.6496
cell vialibity normalized to Vehicle (DMSO) (HeLa cells; Hela 3d, dose 5 μM): 84.5992 and 86.2752 and 82.4709 and 76.6381 and 79.4714
cell vialibity normalized to Vehicle (DMSO) (HeLa cells; Hela 3d, dose 10 μM): 79.4248 and 81.7526 and 84.3598 and 79.9369 and 77.0704
cell vialibity normalized to Vehicle (DMSO) (HeLa cells; Hela 3d, dose 50 μM): 73.5987 and 75.9863 and 80.8614 and 86.3816 and 72.8139
cell vialibity normalized to Vehicle (DMSO) (HeLa cells; Hela 3d, dose 100 μM): 66.9345 and 67.3003 and 64.2675 and 62.1126 and 67.4466
cell vialibity normalized to Vehicle (DMSO) (HeLa cells; Hela 5d, dose 1 μM): 99.6093 and 93.5325 and 94.7977 and 102.368 and 101.019
cell vialibity normalized to Vehicle (DMSO) (HeLa cells; Hela 5d, dose 5 μM): 109.557 and 87.6871 and 94.9961 and 97.211 and 96.619
cell vialibity normalized to Vehicle (DMSO) (HeLa cells; Hela 5d, dose 10 μM): 94.5723 and 89.5534 and 92.3875 and 106.137 and 99.0323
cell vialibity normalized to Vehicle (DMSO) (HeLa cells; Hela 5d, dose 50 μM): 75.251 and 76.5432 and 75.1938 and 78.2863 and 73.7483
cell vialibity normalized to Vehicle (DMSO) (HeLa cells; Hela 5d, dose 100 μM): 73.589 and 66.6556 and 71.8609 and 76.0624 and 69.5949
inhibition of mitochondrial translation [1]: weaker inhibition
viability at 0.0457247 µM (PBMCs; dose 0.0457247 μM, Fig. 1A): 105%
viability at 0.137174 µM (PBMCs; dose 0.137174 μM, Fig. 1A): 100%
viability at 0.411523 µM (PBMCs; Fig. 1A): 101%
viability at 0.411523 µM (PBMCs; Fig. 1B): 103%
viability at 3.7037 µM (PBMCs; Fig. 1A): 103%
viability at 3.7037 µM (PBMCs; Fig. 1B): 135%
viability at 33.3333 µM (PBMCs; Fig. 1A): 89.9%
viability at 33.3333 µM (PBMCs; Fig. 1B): 19.7%
viability at 100 µM (PBMCs; dose 100 μM, Fig. 1A): 34.7%
